Data as given in ChEMBL document CHEMBL5055639, “ω-Functionalized Lipid Prodrugs of HIV NtRTI Tenofovir with Enhanced Pharmacokinetic Properties” (J Med Chem, 2021).

What was measured:
[1] = tested on: Human immunodeficiency virus; assay: Antiviral activity against human immunodeficiency virus expressed in HEK293T cells coexpressing firefly luciferase gene incubated for 48 hrs by Bright-Glo luciferase assay; type: functional, organism-based; details: Human immunodeficiency virus 1, HEK-293T
[2] = Therapeutic index, ratio of CC50 for cytotoxicity against HEK293T cells to IC50 for antiviral activity against human immunodeficiency virus expressed in HEK293T cells; type: toxicity, cell-based; details: read-out: Ratio CC50/IC50
Cytochrome P450 2D6 = Cytochrome P450 2D6 (Homo sapiens, UniProt P10635); assay: Inhibition of human recombinant CYP2D6 expressed in insect microsome using (3-[2-([…]-N-methylammonium)-ethyl]-7-methoxy-4-methylcoumarin iodide as a substrate incubated for 30 mins followed by addition of NADPH regenerating system measured immediately by fluorescence based analysis; type: ADME, microsomes
[3] = tested on: Human immunodeficiency virus; assay: Potency index, ratio of test compound IC50 to TXL IC50 for antiviral activity against human immunodeficiency virus expressed in HEK293T cells coexpressing firefly luciferase gene incubated for 48 hrs by Bright-Glo luciferase assay; type: functional
Cytochrome P450 3A4 = Cytochrome P450 3A4 (Homo sapiens, UniProt P08684); assay: Inhibition of human recombinant CYP3A4 expressed in insect microsome using 7-benzyloxy-4-trifluoromethylcoumarin as a substrate incubated for 30 mins followed by addition of NADPH regenerating system measured immediately by fluorescence based analysis; type: ADME, microsomes
HEK-293T [4] = assay: Cytotoxicity against HEK293T cells assessed as reduction in cell viability measured after 48 hrs by CellTiter 96 Aqueous One Solution reagent based cell proliferation assay; details: human
[5] = Metabolic stability in human liver microsomes assessed as half life at 3 uM measured up to 30 min in presence of NADPH by LC-MS/MS analysis; type: ADME, Microsome; details: 0.5 h
[6] = Ratio of prodrug AUC(0 to 24 hrs) to TFV AUC(0 to 24 hrs) in C57BL/6 mouse plasma at 10 mg/kg, po measured up to 24 hrs by LC-MS/MS analysis; type: ADME, organism-based; details: in vivo
[7] = Prodrug conversion in C57BL/6 mouse plasma assessed as AUC(0 to 24 hrs) of TFV metabolite at 10 mg/kg, po measured up to 24 hrs by LC-MS/MS analysis; type: ADME, organism-based; design: time < 24 hrs, dose 10 mg/kg, route po; details: in vivo
[8] = Prodrug conversion in C57BL/6 mouse plasma assessed as Tmax of TFV metabolite at 10 mg/kg, po measured up to 24 hrs by LC-MS/MS analysis; type: ADME, organism-based; details: in vivo
[9] = Tmax in C57BL/6 mouse liver at 10 mg/kg, po measured up to 24 hrs by LC-MS/MS analysis; type: ADME, organism-based; details: mouse, in vivo, po, 10 mg/kg, 24 h
[10] = Prodrug conversion in C57BL/6 mouse plasma assessed as Cmax of TFV metabolite at 10 mg/kg, po measured up to 24 hrs by LC-MS/MS analysis; type: ADME, organism-based; design: time < 24 hrs, dose 10 mg/kg, route po; details: in vivo
[11] = Plasma protein binding in C57BL/6 mouse at 10 mg/kg, po measured up to 24 hrs by LC-MS/MS; type: ADME, organism-based; details: read-out: PPB
[12] = Prodrug conversion in C57BL/6 mouse liver assessed as Tmax of TFV metabolite at 10 mg/kg, po measured up to 24 hrs by LC-MS/MS analysis; type: ADME, organism-based; details: in vivo
[13] = Prodrug conversion in C57BL/6 mouse liver assessed as AUC(0 to 24 hrs) of TFV metabolite at 10 mg/kg, po measured up to 24 hrs by LC-MS/MS analysis; type: ADME, organism-based; design: time < 24 hrs, dose 10 mg/kg, route po; details: in vivo
[14] = Prodrug conversion in C57BL/6 mouse liver assessed as Cmax of TFV metabolite at 10 mg/kg, po measured up to 24 hrs by LC-MS/MS analysis; type: ADME, organism-based; design: dose 10 mg/kg, time < 24 hrs, route po; details: in vivo
[15] = Tmax in C57BL/6 mouse plasma at 10 mg/kg, po measured up to 24 hrs by LC-MS/MS analysis; type: ADME, organism-based; details: in vivo
[16] = Ratio of prodrug AUC(0 to 24 hrs) to TFV AUC(0 to 24 hrs) in C57BL/6 mouse liver at 10 mg/kg, po measured up to 24 hrs by LC-MS/MS analysis; type: ADME, organism-based; details: in vivo
[17] = Ratio of test compound t1/2 to TXL t1/2 for metabolic stability in human liver microsomes assessed as half life at 3 uM measured up to 30 min in presence of NADPH by LC-MS/MS analysis; type: ADME, Microsome; details: 0.5 h
[18] = Therapeutic index, ratio of CC50 for cytotoxicity against HEK293T cells in absence of HSA to IC50 for antiviral activity against human immunodeficiency virus expressed in HEK293T cells in absence of HSA; type: toxicity, cell-based; details: read-out: Ratio CC50/IC50
HEK-293T [19] = assay: Cytotoxicity against HEK293T cells assessed as reduction in cell viability in absence of HSA measured after 48 hrs by CellTiter 96 Aqueous One Solution reagent based cell proliferation assay; details: human
[20] = tested on: Human immunodeficiency virus; assay: Antiviral activity against human immunodeficiency virus expressed in HEK293T cells coexpressing firefly luciferase gene incubated for 48 hrs in absence of HSA by Bright-Glo luciferase assay; type: functional, organism-based; details: Human immunodeficiency virus 1, HEK-293T

Cytochrome P450 3A4, sequence (P08684 whole entry): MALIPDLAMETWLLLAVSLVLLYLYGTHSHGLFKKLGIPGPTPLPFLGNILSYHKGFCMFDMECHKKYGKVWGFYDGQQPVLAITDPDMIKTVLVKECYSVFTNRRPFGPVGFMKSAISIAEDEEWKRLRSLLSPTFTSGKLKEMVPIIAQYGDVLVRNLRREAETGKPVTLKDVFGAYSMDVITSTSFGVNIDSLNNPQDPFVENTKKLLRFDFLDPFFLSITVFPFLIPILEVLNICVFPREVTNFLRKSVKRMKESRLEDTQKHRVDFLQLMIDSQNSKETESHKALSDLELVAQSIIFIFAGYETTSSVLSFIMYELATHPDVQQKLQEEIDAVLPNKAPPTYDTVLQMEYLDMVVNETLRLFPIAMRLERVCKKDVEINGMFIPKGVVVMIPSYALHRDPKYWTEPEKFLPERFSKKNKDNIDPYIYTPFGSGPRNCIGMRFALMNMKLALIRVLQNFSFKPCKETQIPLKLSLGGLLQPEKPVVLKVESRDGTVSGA
Cytochrome P450 2D6, sequence (P10635 whole entry): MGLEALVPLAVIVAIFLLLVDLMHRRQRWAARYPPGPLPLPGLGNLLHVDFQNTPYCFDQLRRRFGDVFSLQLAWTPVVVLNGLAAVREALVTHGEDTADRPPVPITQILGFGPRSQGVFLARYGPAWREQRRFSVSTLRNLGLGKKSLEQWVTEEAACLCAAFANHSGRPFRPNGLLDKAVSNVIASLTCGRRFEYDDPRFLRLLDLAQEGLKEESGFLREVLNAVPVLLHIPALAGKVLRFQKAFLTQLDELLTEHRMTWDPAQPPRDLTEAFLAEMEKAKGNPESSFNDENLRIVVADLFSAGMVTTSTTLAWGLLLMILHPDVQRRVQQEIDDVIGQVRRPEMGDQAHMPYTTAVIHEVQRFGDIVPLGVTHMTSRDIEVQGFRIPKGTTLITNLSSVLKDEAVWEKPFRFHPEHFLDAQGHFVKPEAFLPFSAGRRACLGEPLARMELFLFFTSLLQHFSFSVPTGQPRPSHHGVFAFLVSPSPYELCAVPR

Structure (SMILES) | IC50 [1] | selectivity ratio [2] | IC50 (Cytochrome P450 2D6) | IC50 (Cytochrome P450 3A4) | CC50 (HEK-293T [4]) | t1/2 [5] | other results
CCCCCCCCCCCCCCCCCCCCOP(=O)(O)CO[C@H](C)Cn1cnc2c(N)ncnc21.N | 0.127 µM | 104 | 33.2 µM | 50 µM | 13.2 µM |  | Ratio IC50 [3]: 7
CCCCCCCCCCCCCCCOP(=O)(O)CO[C@H](C)Cn1cnc2c(N)ncnc21.N | 2.06 µM | > 49 |  |  | > 100 µM | 0.217 h | 
C[C@H](Cn1cnc2c(N)ncnc21)OCP(=O)(O)OCCCCCCCCCCCCCCCCCCCC(F)(F)F.N | 0.12 µM | 603 | > 20 µM | > 20 µM | 72.4 µM | > 2 h | 
C[C@H](Cn1cnc2c(N)ncnc21)OCP(=O)(O)OCCCOCCCCCCCCCCCCCCCC(F)(F)F.N | 0.049 µM | > 2040 | > 20 µM | > 20 µM | > 100 µM | > 2 h | Ratio AUC [6]: 3.8; AUC [7]: 337 ng·h/mL; Tmax [8]: 8 h; Tmax [9]: 2 h; Cmax [10]: 22.1 ng/mL; fraction unbound at 24 h [11]: < 0.001; Tmax [12]: 24 h; AUC [13]: 22600 ng·h/mL; Cmax [14]: 1120 ng/mL; Tmax [15]: 2 h; Ratio AUC [16]: 4.81
CCCCCCCCCCCCCCCCCCOP(=O)(O)CO[C@H](C)Cn1cnc2c(N)ncnc21.N | 0.094 µM | 895 |  |  | 84.1 µM | 0.217 h | 
C#CCCCCCCCCCCCCCCCCOP(=O)(O)CO[C@H](C)Cn1cnc2c(N)ncnc21.N | 2.03 µM | > 49 |  |  | > 100 µM | > 2 h | 
C#CCCCCCCCCCCCCCOP(=O)(O)CO[C@H](C)Cn1cnc2c(N)ncnc21.N | 28.6 µM | > 3 |  |  | > 100 µM | 1.57 h | Ratio [17]: >= 3
C[C@H](Cn1cnc2c(N)ncnc21)OCP(=O)(O)O [TENOFOVIR ANHYDROUS] | 1.6 µM | 22 | > 50 µM | 45.8 µM | 35.4 µM |  | selectivity ratio [18]: > 49; CC50 (HEK-293T [19]): > 100 µM; IC50 [20]: 2.06 µM
